The text below walks through data of patent US12559529B2, “NPY2 receptor agonists” (Boehringer Ingelheim International GmbH, priority 2019, dated 2026).

One series addresses T1, human NPY2 receptor (Homo sapiens, UniProt P49146).
T1 sequence (P49146 1-381): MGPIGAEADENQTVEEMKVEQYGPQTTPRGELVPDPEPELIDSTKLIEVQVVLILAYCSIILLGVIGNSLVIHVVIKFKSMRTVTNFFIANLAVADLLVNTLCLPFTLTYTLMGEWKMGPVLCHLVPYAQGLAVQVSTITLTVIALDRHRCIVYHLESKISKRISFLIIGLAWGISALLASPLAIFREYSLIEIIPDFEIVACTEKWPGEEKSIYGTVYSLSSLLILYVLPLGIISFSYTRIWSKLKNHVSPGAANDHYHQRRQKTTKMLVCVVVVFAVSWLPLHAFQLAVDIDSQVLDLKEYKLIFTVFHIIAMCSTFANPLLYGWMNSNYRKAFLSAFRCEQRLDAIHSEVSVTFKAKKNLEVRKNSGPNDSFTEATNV
Nature of the series: HTRF cAMP Gi assay, hY2R. On the technique in general: Time-resolved FRET reads energy transfer from a long-lived donor to a nearby acceptor.

A short description of the next series: Solubility determination. It counts as physicochemical. Here is the method: The peptide was dissolved by shaking the filter unit horizontally at 600 rpm for 2 hours at room temperature. […] Both the control and sample were analysed with reversed phase chromatography. The area under the peak of the sample was compared to the control and the solubility was calculated based on that ratio. The pH was measured and recorded for each sample.

The target in series [1] is T2, Human Neuropeptide Y2 Receptor (Homo sapiens, UniProt P49146).
T2 construct: purchased CHEMICON HTS066M
T2 sequence (P49146 1-381): T1 sequence (P49146 1-381)
Briefly: Radioligand binding competition assay (RLB). Conditions: Table 2; read-out: hY2 RLB (nM) (Ex. 1). Summed up:
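Membranes from cells expressing human Y2 receptor (0.5 μg protein/well) were incubated with radioligand and serially diluted peptides in 50 mM HEPES, 5 mM MgCl2, 1 mM CaCl2, 0.2% ovalbumin, pH 7.4, for 2 h at room temperature with shaking. Bound radioactivity was collected by filtration and counted; IC50 from sigmoidal nonlinear regression.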

Molecules are shown by their SMILES.

Procedure for human NPY2 receptor: Briefly, the production of intracellular cAMP will generate a competition between unlabeled cAMP and exogenously added d2-cAMP for anti-cAMP antibodies conjugated to cryptate. CHO-K1 cells stably expressing the human NPY1, NPY2, NPY4 and NPY5 receptors were used with the cells brought to life from a frozen stock immediately before assay performance. 2000 cells per well were applied for all four NPY receptor subtype assays. A 384-well format was used applying a total volume of 20 μl using 5 μl cells, 2.5 μl peptide agonist, 2.5 μl forskolin and 5 μl of each of the fluorophores. […] Concentration-response evaluation of compounds was performed with 11 concentrations of agonist peptides (covering 3 decades). EC50 values were calculated by nonlinear regression using sigmoid concentration-response with variable slope.

For the compound `CC(C)CC(=O)N[C@@H](CCCNC(=N)N)C(=O)N1CCC[C@H]1C(=O)N[C@@H](CCC(=O)O)C(=O)N[C@@H](CCCCNC(=O)COCCOCCNC(=O)COCCOCCNC(=O)CC[C@H](NC(=O)CCCCCCCCCCCCCCCCC(=O)O)C(=O)O)C(=O)N1CCC[C@H]1C(=O)NCC(=O)N[C@@H](CCC(=O)O)C(=O)N[C@@H](CC(=O)O)C(=O)N[C@@H](C)C(=O)N[C@@H](CO)C(=O)N1CCC[C@H]1C(=O)N[C@@H](CCC(=O)O)C(=O)N[C@@H](CCC(=O)O)C(=O)N[C@@H](CC(C)C)C(=O)N[C@@H](CCC(N)=O)C(=O)N[C@@H](CCCNC(=N)N)C(=O)N[C@@H](Cc1ccc(O)cc1)C(=O)N[C@@H](Cc1ccc(O)cc1)C(=O)N[C@H](C(=O)N[C@@H](CO)C(=O)N[C@@H](CC(C)C)C(=O)N[C@@H](CCCNC(=N)N)C(=O)N[C@@H](C)C(=O)N[C@@H](Cc1ccc(O)cc1)C(=O)N[C@@H](Cc1ccc(O)cc1)C(=O)N[C@@H](CC(N)=O)C(=O)N[C@@H](Cc1c[nH]c2ccccc12)C(=O)N[C@@H](CC(C)C)C(=O)N[C@H](C(=O)N[C@@H](CCCNC(=N)N)C(=O)N[C@@H](CCC(N)=O)C(=O)N[C@@H](CCCNC(=N)N)C(=O)N[C@@H](Cc1ccc(O)cc1)C(N)=O)[C@@H](C)O)C(C)C` [Ref. 3, reference compound], the concentration giving a half-maximal response (EC50) on human NPY2 receptor came out at 0.375 nM. In addition, the “[final pH] of Sol pH 6 sample” value in “Solubility determination” (pH 6) is “[6.0]”. Also, in the series “Solubility determination” (pH 7), the “[final pH] of Sol pH 7 sample” value is “[6.7]”. The Ki in series [1] stood at 1.69 nM.

For orientation: EC50 means the concentration that produces a half-maximal response. The low end stands for higher potency in that assay, the high end for lower potency in that assay.
